# Experiments:
# [1] = tested on: F-spondin expression in human chondrocytes; experiment: Induction of F-spondin expression in human chondrocytes, TaqMan quantitative PCR; type: cell-based
# Description: In another particular embodiment, the candidate compound is further tested for an effect in an animal model for arthritis, or a cartilage degenerative condition, wherein said arthritis or cartilage degenerative condition is characterized by elevated levels of F-spondin. Examples of animal models for studying arthritis and cartilage degenerative conditions may be found in the following publications, which are incorporated in their entireties: Ameye, L. G. et al., Current Opinion in Rheumatology (2006), 18(5):537-547; Warskyj, M. and Hukins, D W, Br. J. of Rheumatology (1990), 29:219-221; Bolter, S. M. et al., Biorheology, (2006), 43(3-4):379-388; Carlson, C. S. et al., J. Bone Miner. Res. (1996), September; 11(9):1209-1217; Moreau, M. et al., J. Rheumatology (2006), June; 33(6):1176-1183; Laurent, D. et al. Skeletal Radiol., (2006), August; 35(8):555-564; Hotta, H. et al. J. Orthop. Sci. (2005), November; 10(6):595-607; Mastbergen, S. C. et al. Rheumatology (Oxford), (2006), April; 45(4):405-413; and Mastbergen, S. C. et al., Osteoarthritis Cartilage (2006), January; 14(1):39-46. Chambers M. G. et al., Arthritis and Rheumatism (2001) June 44(6):1455-1465. In another particular embodiment, the potential inducers of F-spondin in cartilage/chondrocytes for use in a therapeutic setting may be selected from the group consisting of prostaglandin E2 (PGE2), cAMP inducers, Bone morphogenic protein 2 (BMP-2), Insulin-like growth factor (IGF), Fibroblast growth factor basic (FGFbasic) and Transforming Growth factor b1 (TGF-b1). […] Accordingly, it is envisioned that these agents may be used for treating conditions as described herein.
# OA chondrocytes = experiment: Effect of PGE2 on chondrocytes (secretion, NURR1 QPCR); type: cell-based, human
# Procedure: (§1) F-spondin induced both catabolic and anabolic gene/gene products in chondrocytes including BMP-2, type II collagen, TGF-β1, COX-2, mPGES and PGE2. To begin to address the question of whether selected F-spondin effects in cartilage are mediated by prostaglandin production, we have begun studies to characterize the effect of PGE2 in cartilage. Addition of PGE2 (1-10 uM) to cartilage explants inhibited type II collagen, aggrecan expression, ^35SO4 incorporation, as well as increased type II collagen degradation as assessed by C12C ELISA (IBEX). […] Relative to normals, NURR1 was overexpressed in OA cartilage (2-5 fold) and synovium (2 fold), confirmed by QPCR. Incubation of OA chondrocytes with PGE2 (1-10 uM) induced NURR1 expression (20-50 fold), as analyzed by QPCR. Since NURR1 binds to the NURR1 cis-acting sequence (NBRE) in the promoter region of a variety of genes, we examined the effect of adenoviral-mediated over-expression of NURR1 in chondrocytes.
# cartilage explants = experiment: Effect of PGE2 on cartilage explants; type: cell-based, human; conditions: PGE2 1-10 uM
# Procedure: as §1
# [2] = tested on: chick sternal chondrocytes; experiment: Retinoic acid induced maturation of chick sternal chondrocytes (RT-PCR, AP staining); type: cell-based
# Procedure: FIGS. 21A and 21B. […] Upper sternal chondrocytes were exposed to 0, 10, 35 or 100 nM retinoic acid (RA) for 5 days in culture. […] (B) Relative gene expression levels of chondrocyte maturation markers were determined by semi-quantitative RT-PCR of RNA harvested from parallel cultures. Values represent mean±std deviation for triplicate samples.
# Chondrocytes were isolated from the cephalic and caudal portion of day 14 chick embryo sterna as described by (Teixeira C C, Shapiro I M, Hatori M, Rajpurohit R, Koch C. Retinoic acid modulation of glutathione and cysteine metabolism in chondrocytes. Biochem J 1996; 314 (Pt 1):21-6). After 5 days of primary culture, chondrocytes were separated from the attached fibroblasts, harvested by centrifugation, counted, and plated in tissue culture dishes in complete medium supplemented with hyaluronidase (4-units/ml) to promote attachment. After becoming confluent, and to induce maturation, cells were treated daily with all-trans retinoic acid (35-100 nM) (Sigma) in the presence of ascorbate-2-phosphate (100 μM) for 1 week. Control cultures were treated with an equal volume of vehicle. Cultures were provided with β-glycerophosphate (5 mM) to serve as phosphate donor. For transfections, chondrocytes were transiently transfected with a plasmid encoding full length F-spondin cDNA under control of a CMV promoter, 1 day after plating in monolayer culture, using the FuGene 6 Transfection Reagent (Roche, Nutley, N.J.) according to the manufacturer's specifications. Parallel transfections with a CMV-GFP plasmid was used as a null control and to estimate transfection efficiency.
# To investigate the role of F-spondin in chondrocyte maturation, we used an in vitro model in which chick sternal chondrocytes mimic growth plate chondrocytes and undergo terminal differentiation in response to RA treatment. […] Chick chondrocytes were stimulated with increasing doses of RA (10-100 nm) and harvested for gene expression analysis by qPCR after 5 days. The relative gene expression of type X collagen (ColX), alkaline phosphatae (AP), MMP-13, and F-spondin were assessed with increasing maturation on RA stimulation (FIG. 14).
# Chondrocytes were isolated from the cephalic (upper) portion of 14 day old chick embryo sterna as previously described (Teixeira, C. C., et al. (1995) Calcif Tissue Int 56:252-56).^15. After 5 days of primary culture, floating chondrocytes were separated from the attached fibroblasts, and plated in tissue culture dishes in DMEM supplemented with 10% FBS and hyaluronidase (4-units/ml) to promote attachment. At confluence, differentiation was induced by daily treatment with all-trans retinoic acid (RA) from 0.1% v/v aliquots of a 1000-fold stock solution in 95% ethanol. Final concentrations ranged from 10 to 100 nM. To examine the effect of F-spondin overexpression, cultures were transfected at 70-80% confluence, with either full length (pFSI), truncated (pFS6) F-spondin cDNAs or control vector pcDNA3 (Invitrogen) using GenePorter transfection reagent (Genlantis, San Diego, Calif.). Differentiation was induced by daily treatments with 100 nM RA, which were initiated the following day. For F-spondin inhibition studies, a TSR domain specific F-spondin antibody (R1), or a spondin domain specific F-spondin antibody (R4) (R1 and R4 antibodies were provided by Dr. Avihu Klar (Hebrew University, Jerusalem, Israel), were added to chondrocyte cultures (1:100 dilution), every other day 1 h prior to RA treatment.
# Different regions of the chick growth plate were visually identified and dissected into separate tubes, frozen in liquid nitrogen and crushed. Total RNA was extracted using Trizol® reagent (Life Technologies, Gaitherburg, Md.) per manufacturer's instructions.
# bone marrow-derived MSCs = experiment: Chondrogenesis of bone marrow-derived MSC aggregate cultures; type: cell-based; conditions: for staining for proteoglycan, type II and type X collagen: 21 d aggregates, adenoviral expression 50 ng/ml; for chondrogenesis in aggregate cultures: adult bone marrow-derived MSCs
# Procedure: FIG. 6: Chondrogenesis of postnatal MSCs following exposure to TGF-β and BMP-2. Bone marrow-derived MSCs were modified to express 50 ng/ml BMP-2 or TGF-β1 using first generation recombinant adenoviral vectors and seeded into high density aggregates. After 21 d, aggregates were fixed, sectioned and stained for the presence of chondrogenic markers using toluidine blue (proteoglycan) and immunostaining for type II and X collagen. This pattern was consistent over three experiments.
# Upon histological examination important differences between TGF-β1 and BMP-2-treated cultures were noted (FIG. 6). […] We propose to extend these studies further, in order to more fully characterize extracellular matrix protein expression during chondrocyte maturation and the relationship to F-spondin, by comparing the effects of various chondroinductive factors.
molecule,measurement,setting,value
"CCCCC[C@H](O)/C=C/[C@H]1[C@H](O)CC(=O)[C@@H]1C/C=C\CCCC(=O)O [PGE2, prostaglandin E2]",F-spondin expression,[1],induced F-spondin expression
same,induction of NURR1 expression,"OA chondrocytes; OA chondrocytes, PGE2 1-10 uM, QPCR",20-50 fold
same,MMP-1 secretion,OA chondrocytes; chondrocytes,decreased
same,secretion of IL-6,OA chondrocytes; chondrocytes,increased
same,secretion of IL-8,OA chondrocytes; chondrocytes,increased
same,secretion of MMP-13,OA chondrocytes; chondrocytes,increased
same,35SO4 incorporation,cartilage explants,inhibited
same,aggrecan expression,cartilage explants,inhibited
same,type II collagen degradation (C12C ELISA),cartilage explants,increased
same,type II collagen expression,cartilage explants,inhibited
"CC1=C(/C=C/C(C)=C/C=C/C(C)=C/C(=O)O)C(C)(C)CCC1 [RA, all-trans retinoic acid]",F-spondin expression relative to controls,"[2]; 100 nM RA, 5 days, p=0.04",approximately 3 fold
same,MMP-13 expression,"[2]; RA 0-100 nM, 5 days, RT-PCR",increased
same,VEGF expression,"[2]; RA 0-100 nM, 5 days, RT-PCR",increased
same,type I collagen expression,"[2]; RA 0-100 nM, 5 days, RT-PCR",pronounced upregulation
same,type II collagen expression,"[2]; RA 0-100 nM, 5 days, RT-PCR",marked downregulation
same,type X collagen expression,"[2]; RA 0-100 nM, 5 days, RT-PCR",did not increase
same,AP activity (red staining),"[2]; RA 0-100 nm, 5 days",dose dependant increase
same,increase in F-spondin gene expression,"[2]; RA 10-100 nm, 5 days, vs non-stimulated controls",2- to 4 fold
same,upregulation of F-spondin following RA treatment,"[2]; chick sternal model, p<0.05",3.5 fold
FGF basic: Fibroblast growth factor basic,F-spondin expression,[1],induced F-spondin expression
TGF-β1: Transforming growth factor-beta 1,F-spondin expression,[1],induced F-spondin expression
same,"staining for proteoglycan, type II and type X collagen",bone marrow-derived MSCs,generally lower
same,chondrogenesis in aggregate cultures,bone marrow-derived MSCs,undergo chondrogenesis
"BMP-2: protein that induces the formation of bone and cartilage (protein, listed as Homo sapiens) MVAGTRCLLALLLPQVLLGGAAGLVPELGRRKFAAASSGRPSSQPSDEVLSEFELRLLSMFGLKQRPTPSRDAVVPPYMLDLYRRHSGQPGSPAPDHRLERAASRANTVRSFHHEESLEELPETSGKTTRRFFFNLSSIPTEEFITSAELQVFREQMQDALGNNSSFHHRINIYEIIKPATANSKFPVTRLLDTRLVNQNASRWESFDVTPAVMRWTAQGHANHGFVVEVAHLEEKQGVSKRHVRISRSLHQDEHSWSQIRPLLVTFGHDGKGHPLHKREKRQAKHKQRKRLKSSCKRHPLYVDFSDVGWNDWIVAPPGYHAFYCHGECPFPLADHLNSTNHAIVQTLVNSVNSKIPKACCVPTELSAISMLYLDENEKVVLKNYQDMVVEGCGCR",F-spondin expression,[1],induced F-spondin expression
same,"staining for proteoglycan, type II and type X collagen",bone marrow-derived MSCs,more intense staining
same,chondrogenesis in aggregate cultures,bone marrow-derived MSCs,undergo chondrogenesis

# Source: patent US20140274766A1, “METHODS OF USING F-SPONDIN AS A BIOMARKER FOR CARTILAGE DEGENERATIVE CONDITIONS AND BONE DISEASES” (priority 2009, published 2014)
